Holding throughout (format): binding
The target of assay [1] is DCAF15-DDB1-DDA1 with RBM39(Δ150) (Homo sapiens, UniProt Q14498+Q66K64). In words: TR-FRET ternary complex recruitment assay. For orientation: In TR-FRET formats the signal depends on donor and acceptor labels being close together.
For a further assay, the target named is T1, RBM39(Δ150) (Homo sapiens, UniProt Q14498).
T1 sequence (Q14498 151-530): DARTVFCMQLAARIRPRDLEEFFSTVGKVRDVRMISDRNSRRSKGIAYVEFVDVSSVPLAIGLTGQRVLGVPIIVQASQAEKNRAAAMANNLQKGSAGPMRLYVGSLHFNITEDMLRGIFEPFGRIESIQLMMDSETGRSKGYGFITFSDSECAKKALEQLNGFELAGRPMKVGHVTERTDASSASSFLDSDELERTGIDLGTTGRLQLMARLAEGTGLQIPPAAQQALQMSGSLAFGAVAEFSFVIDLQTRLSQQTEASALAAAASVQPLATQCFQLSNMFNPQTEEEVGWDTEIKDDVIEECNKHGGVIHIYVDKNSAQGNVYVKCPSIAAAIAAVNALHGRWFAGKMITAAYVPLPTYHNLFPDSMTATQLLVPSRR
Kind of assay: isothermal titration calorimetry. (In general: Isothermal titration calorimetry measures the heat released or taken up as one component is titrated into another.)

In assay [2] the target is DCAF15-DDB1(ΔBPB)-DDA1 and RBM39(Δ150) mixture (Homo sapiens, UniProt Q14498+Q66K64). Kind of assay: isothermal titration calorimetry.
In a further assay the target is DCAF15-DDB1(ΔBPB)-DDA1 (Homo sapiens, UniProt Q66K64). Kind of assay: isothermal titration calorimetry.

A word on the EC50: it is the concentration that produces a half-maximal response. For orientation: Kd means a measure of binding affinity in units of concentration.

In turn, `Cc1ccc(NS(=O)(=O)c2ccc(CN)cc2)c2[nH]cc(C#N)c12` [compound 7, 4-(aminomethyl)-N-(3-cyano-4-methyl-1H-indol-7-yl)benzenesulfonamide] came in with a 50% effective concentration (EC50) in assay [1] of 2.38 µM.
Still for that read-out and setting: the value for `Cc1ccc(NS(=O)(=O)c2ccc(N)cc2)c2[nH]cc(C#N)c12` [compound 6, Compound 6] was 3.82 µM; that for `Cc1c[nH]c2c(NS(=O)(=O)c3ccc(S(=O)(=O)N(C)C)cc3)cccc12` [compound 4, N^1,N^1-dimethyl-N^4-(3-methyl-1H-indol-7-yl)benzene-1,4-disulfonamide] was 12.3 µM.
Same read-out and setting: the value for `Cc1c[nH]c2c(NS(=O)(=O)c3ccc(S(N)(=O)=O)cc3)cccc12` [compound 1, N-(3-methyl-1H-indol-7-yl)benzene-1,4-disulfonamide] was 14.3 µM; that for `NS(=O)(=O)c1ccc(S(=O)(=O)Nc2cccc3cc[nH]c23)cc1` [compound 3, N-(1H-indol-7-yl)benzene-1,4-disulfonamide] was > 50 µM.
Consider `NS(=O)(=O)c1ccc(S(=O)(=O)Nc2cccc3c(Cl)c[nH]c23)cc1` [Indisulam], for which the EC50 in assay [1] is 3.4 µM. Further, the Kd was > 50 µM on RBM39(Δ150), 0.187 µM in assay [2] and ~17 µM on DCAF15-DDB1(ΔBPB)-DDA1.
`N#Cc1c[nH]c2c(NS(=O)(=O)c3ccc(S(N)(=O)=O)cc3)cccc12` [compound 2, N-(3-cyano-1H-indol-7-yl)benzene-1,4-disulfonamide] yielded an EC50 in assay [1] of 1.21 µM.
On the same count and under the same terms, next, `O=S(=O)(Nc1cccc2c(Cl)c[nH]c12)c1ccccc1` [compound 5, N-(3-chloro-1H-indol-7-yl)benzenesulfonamide]: 38.1 µM.

The values are drawn from publication doi:10.1101/737510v1 (biorxiv, 2019).
